Measurements: US11718604B2, “4-amino-6-(1,3-benzodioxole)picolinates and their use as herbicides” (Dow AgroSciences LLC, priority 2018, dated 2023)

Assays:
Format in all cases: in vivo
[1] = system: EPHHL: wild poinsettia (Euphorbia heterophylla); test: Post-emergent herbicidal test, wild poinsettia; conditions: post-emergence, 336 h, 14 days after application, read-out: Visual Growth Reduction (%) 14 Days After Application EPHHL
In short: (§1)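 Visual injury rating, 0 (none) to 100% (complete kill), made 14 d after treatment relative to untreated plants. Foliar track-sprayer application at 187 L/ha to plants at the 1st-2nd true leaf stage; rates were twofold serial dilutions from the highest rate down to 1/16×.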

[2] = system: SETFA: giant foxtail (Setaria faberi); test: Post-emergent herbicidal test, giant foxtail; conditions: post-emergence, 336 h, 14 days after application, read-out: Visual Growth Reduction (%) 14 Days After Application SETFA
In short: as §1

[3] = system: VIOTR: wild violet (Viola tricolor); test: Post-emergent herbicidal test, wild violet; conditions: post-emergence, 336 h, 14 days after application, read-out: Visual Growth Reduction (%) 14 Days After Application VIOTR
In short: as §1

[4] = system: IPOHE: ivyleaf morningglory (Ipomoea hederacea); test: Post-emergent herbicidal test, ivyleaf morningglory; conditions: post-emergence, 336 h, 14 days after application, read-out: Visual Growth Reduction (%) 14 Days After Application IPOHE
In short: as §1

[5] = system: SORVU: shattercane (Sorghum bicolor); test: Post-emergent herbicidal test, shattercane; conditions: post-emergence, 336 h, 14 days after application, read-out: Visual Growth Reduction (%) 14 Days After Application SORVU
In short: as §1

[6] = system: ECHCG: barnyardgrass (Echinochloa crus-galli); test: Post-emergent herbicidal test, barnyardgrass; conditions: post-emergence, 336 h, 14 days after application, read-out: Visual Growth Reduction (%) 14 Days After Application ECHCG
In short: as §1

[7] = system: CIRAR: Canada thistle (Cirsium arvense); test: Post-emergent herbicidal test, Canada thistle; conditions: post-emergence, 336 h, 14 days after application, read-out: Visual Growth Reduction (%) 14 Days After Application CIRAR
In short: as §1

[8] = system: CYPES: yellow nutsedge (Cyperus esculentus); test: Post-emergent herbicidal test, yellow nutsedge; conditions: post-emergence, 336 h, 14 days after application, read-out: Visual Growth Reduction (%) 14 Days After Application CYPES
In short: as §1

[9] = system: BRSNN: oilseed rape, canola (Brassica napus); test: Post-emergent herbicidal test, oilseed rape; conditions: post-emergence, 336 h, 14 days after application, read-out: Visual Growth Reduction (%) 14 Days After Application BRSNN
In short: as §1

[10] = system: DIGSA: large crabgrass (Digitaria sanguinalis); test: Post-emergent herbicidal test, large crabgrass; conditions: post-emergence, 336 h, 14 days after application, read-out: Visual Growth Reduction (%) 14 Days After Application DIGSA
In short: as §1

[11] = system: ABUTH: velvetleaf (Abutilon theophrasti); test: Post-emergent herbicidal test, velvetleaf; conditions: post-emergence, 336 h, 14 days after application, read-out: Visual Growth Reduction (%) 14 Days After Application ABUTH
In short: as §1

Nc1c(F)c(-c2cccc3c2OC(F)(F)O3)nc(C(=O)O)c1Cl [Compound 5]
85%: pest or weed control at 70 g/ha ([9]; 70 g ai/ha)
10%: pest or weed control at 70 g/ha ([3]; 70 g ai/ha) | pest or weed control at 140 g/ha ([3]; 140 g ai/ha) | pest or weed control at 140 g/ha ([4]; 140 g ai/ha) | pest or weed control at 17.5 g/ha ([11]; 17.5 g ai/ha)
20%: pest or weed control at 35 g/ha ([11]; 35 g ai/ha)
40%: pest or weed control at 70 g/ha ([11]; 70 g ai/ha)
60%: pest or weed control at 17.5 g/ha ([7]; 17.5 g ai/ha)
0%: pest or weed control at 17.5 g/ha ([1]; 17.5 g ai/ha) | pest or weed control at 35 g/ha ([1]; 35 g ai/ha) | pest or weed control at 70 g/ha ([1]; 70 g ai/ha) | pest or weed control at 140 g/ha ([1]; 140 g ai/ha) | pest or weed control at 17.5 g/ha ([2]; 17.5 g ai/ha) | pest or weed control at 35 g/ha ([2]; 35 g ai/ha) | pest or weed control at 70 g/ha ([2]; 70 g ai/ha) | pest or weed control at 140 g/ha ([2]; 140 g ai/ha) | pest or weed control at 17.5 g/ha ([3]; 17.5 g ai/ha) | pest or weed control at 35 g/ha ([3]; 35 g ai/ha) | pest or weed control at 17.5 g/ha ([4]; 17.5 g ai/ha) | pest or weed control at 35 g/ha ([4]; 35 g ai/ha) | pest or weed control at 70 g/ha ([4]; 70 g ai/ha) | pest or weed control at 17.5 g/ha ([5]; 17.5 g ai/ha) | pest or weed control at 35 g/ha ([5]; 35 g ai/ha) | pest or weed control at 70 g/ha ([5]; 70 g ai/ha) | pest or weed control at 140 g/ha ([5]; 140 g ai/ha) | pest or weed control at 17.5 g/ha ([6]; 17.5 g ai/ha) | pest or weed control at 35 g/ha ([6]; 35 g ai/ha) | pest or weed control at 70 g/ha ([6]; 70 g ai/ha) | pest or weed control at 140 g/ha ([6]; 140 g ai/ha) | pest or weed control at 17.5 g/ha ([8]; 17.5 g ai/ha) | pest or weed control at 35 g/ha ([8]; 35 g ai/ha) | pest or weed control at 70 g/ha ([8]; 70 g ai/ha) | pest or weed control at 140 g/ha ([8]; 140 g ai/ha) | pest or weed control at 17.5 g/ha ([10]; 17.5 g ai/ha) | pest or weed control at 35 g/ha ([10]; 35 g ai/ha) | pest or weed control at 70 g/ha ([10]; 70 g ai/ha) | pest or weed control at 140 g/ha ([10]; 140 g ai/ha)
80%: pest or weed control at 140 g/ha ([7]; 140 g ai/ha) | pest or weed control at 35 g/ha ([9]; 35 g ai/ha)
95%: pest or weed control at 140 g/ha ([9]; 140 g ai/ha)
70%: pest or weed control at 35 g/ha ([7]; 35 g ai/ha)
75%: pest or weed control at 70 g/ha ([7]; 70 g ai/ha) | pest or weed control at 17.5 g/ha ([9]; 17.5 g ai/ha)
50%: pest or weed control at 140 g/ha ([11]; 140 g ai/ha)
